Results reported in ChEMBL document CHEMBL3885861, “Open TG-GATES”.

Organism: Rattus norvegicus
Experiment: Open TG-GATES - Regimen: Single
Assay type: toxicity, organism-based, Sprague-Dawley
Design: regimen Single, gender Male, age 6 weeks
Details: in vivo, po, 0 mg/kg, route gavage, dose level Control; for APTT / Bas / Eos / Fbg / Hb / Ht / Lym / MCH / MCHC / MCV / Mono / Neu / PT / Plat / RBC / Ret / WBC: tissue Blood; for KIDNEY_L / KIDNEY_R / KIDNEY_TOTAL: tissue Kidney; for LIVER: tissue Liver; for A/G / ALP / ALT / AST / BUN / CRE / Ca / Cl / DBIL / GLC / IP / K / LDH / Na / PL / RALB / TBIL / TC / TG / TP / gamma-GTP: tissue Plasma

Compound `CC[C@@H](CO)NCCN[C@@H](CC)CO` [ETHAMBUTOL] has a TERMINAL_BW (3 h) of 227 g, an APTT (3 h) of 21.4 s and a Bas (3 h) of 0%. For the same compound, the Eos (3 h) was 0.8%, the Fbg (3 h) was 319 mg/dL and the Hb (3 h) was 13.3 g/dL. The Ht (3 h) was 39.5%, the Lym (3 h) was 83.8% and the MCH (3 h) was 22.3 pg. For the same compound, the MCHC (3 h) was 33.7%, the MCV (3 h) was 66.2 fL and the Mono (3 h) was 2%. It also gave a Neu (3 h) of 12.2%, a PT (3 h) of 15.9 s and a Plat (3 h) of 118.8 x10_4/uL. It also gave an RBC (3 h) of 597.6 x10_4/ul, a Ret (3 h) of 8.3% and a WBC (3 h) of 97.7 x10_2/uL. It also gave a KIDNEY_L (3 h) of 1 g, a KIDNEY_R (3 h) of 1 g and a KIDNEY_TOTAL (3 h) of 2.1 g. For the same compound, the LIVER (3 h) was 11.4 g, the A/G (3 h) was 1.2 and the ALP (3 h) was 1599 IU/L. For the same compound, the ALT (3 h) was 42.2 IU/L, the AST (3 h) was 73.6 IU/L and the BUN (3 h) was 14.2 mg/dL. It also gave a CRE (3 h) of 0.2 mg/dL, a Ca (3 h) of 10.4 mg/dL and a Cl (3 h) of 106.6 meq/L. The DBIL (3 h) was 0 mg/dL, the GLC (3 h) was 192.4 mg/dL and the IP (3 h) was 8.7 mg/dL. For the same compound, the K (3 h) was 4.1 meq/L, the LDH (3 h) was 171.6 IU/L and the Na (3 h) was 144.2 meq/L. For the same compound, the PL (3 h) was 137.2 mg/dL, the RALB (3 h) was 3 g/dL and the TBIL (3 h) was 0.01 mg/dL. The TC (3 h) was 75.6 mg/dL, the TG (3 h) was 63.8 mg/dL and the TP (3 h) was 5.3 g/dL. It also gave a gamma-GTP (3 h) of 1.6 IU/L, a TERMINAL_BW (6 h) of 224 g and an APTT (6 h) of 22.2 s. The Bas (6 h) was 0%, the Eos (6 h) was 0.8% and the Fbg (6 h) was 301.2 mg/dL. For the same compound, the Hb (6 h) was 13.6 g/dL, the Ht (6 h) was 39.9% and the Lym (6 h) was 82.6%. For the same compound, the MCH (6 h) was 21.7 pg, the MCHC (6 h) was 34.1% and the MCV (6 h) was 63.8 fL. For the same compound, the Mono (6 h) was 2.4%, the Neu (6 h) was 13% and the PT (6 h) was 15.6 s. For the same compound, the Plat (6 h) was 122.5 x10_4/uL, the RBC (6 h) was 624.8 x10_4/ul and the Ret (6 h) was 7.5%. For the same compound, the WBC (6 h) was 117.8 x10_2/uL, the KIDNEY_L (6 h) was 1 g and the KIDNEY_R (6 h) was 1 g. It also gave a KIDNEY_TOTAL (6 h) of 2 g, an LIVER (6 h) of 10 g and an A/G (6 h) of 1.2. It also gave an ALP (6 h) of 1271 IU/L, an ALT (6 h) of 35 IU/L and an AST (6 h) of 66.2 IU/L. For the same compound, the BUN (6 h) was 11.2 mg/dL, the CRE (6 h) was 0.2 mg/dL and the Ca (6 h) was 10.3 mg/dL. For the same compound, the Cl (6 h) was 105.8 meq/L, the DBIL (6 h) was 0 mg/dL and the GLC (6 h) was 200.4 mg/dL. It also gave an IP (6 h) of 9.2 mg/dL, a K (6 h) of 4.4 meq/L and an LDH (6 h) of 176.2 IU/L. The Na (6 h) was 141.8 meq/L, the PL (6 h) was 134.8 mg/dL and the RALB (6 h) was 2.9 g/dL. It also gave a TBIL (6 h) of 0.02 mg/dL, a TC (6 h) of 72 mg/dL and a TG (6 h) of 82.8 mg/dL. The TP (6 h) was 5.4 g/dL, the gamma-GTP (6 h) was 1.6 IU/L and the TERMINAL_BW (9 h) was 220 g. It also gave an APTT (9 h) of 22.6 s, a Bas (9 h) of 0% and an Eos (9 h) of 0.6%. For the same compound, the Fbg (9 h) was 288 mg/dL, the Hb (9 h) was 13.4 g/dL and the Ht (9 h) was 39.5%. For the same compound, the Lym (9 h) was 82.6%, the MCH (9 h) was 21.3 pg and the MCHC (9 h) was 34%. It also gave an MCV (9 h) of 62.7 fL, a Mono (9 h) of 2.4% and a Neu (9 h) of 13.2%. The PT (9 h) was 16.5 s, the Plat (9 h) was 116 x10_4/uL and the RBC (9 h) was 632 x10_4/ul. The Ret (9 h) was 6.9%, the WBC (9 h) was 93.6 x10_2/uL and the KIDNEY_L (9 h) was 1 g. The KIDNEY_R (9 h) was 1 g, the KIDNEY_TOTAL (9 h) was 2 g and the LIVER (9 h) was 9.3 g. It also gave an A/G (9 h) of 1.2, an ALP (9 h) of 1394.2 IU/L and an ALT (9 h) of 37.4 IU/L. It also gave an AST (9 h) of 69.8 IU/L, a BUN (9 h) of 10.6 mg/dL and a CRE (9 h) of 0.2 mg/dL. For the same compound, the Ca (9 h) was 10.1 mg/dL, the Cl (9 h) was 107.8 meq/L and the DBIL (9 h) was 0.002 mg/dL. It also gave a GLC (9 h) of 180.2 mg/dL, an IP (9 h) of 9 mg/dL and a K (9 h) of 4.1 meq/L. It also gave an LDH (9 h) of 136.8 IU/L, a Na (9 h) of 142 meq/L and a PL (9 h) of 118.2 mg/dL. For the same compound, the RALB (9 h) was 3 g/dL, the TBIL (9 h) was 0.024 mg/dL and the TC (9 h) was 68.4 mg/dL. It also gave a TG (9 h) of 37.4 mg/dL, a TP (9 h) of 5.6 g/dL and a gamma-GTP (9 h) of 1.2 IU/L. For the same compound, the TERMINAL_BW (24 h) was 232.7 g, the APTT (24 h) was 22.2 s and the Bas (24 h) was 0%. The Eos (24 h) was 0.8%, the Fbg (24 h) was 311.8 mg/dL and the Hb (24 h) was 13.9 g/dL. It also gave a Ht (24 h) of 39.5%, a Lym (24 h) of 82.4% and an MCH (24 h) of 22.5 pg. It also gave an MCHC (24 h) of 35.1%, an MCV (24 h) of 64 fL and a Mono (24 h) of 2.4%. For the same compound, the Neu (24 h) was 13.4%, the PT (24 h) was 16.4 s and the Plat (24 h) was 115.4 x10_4/uL. It also gave an RBC (24 h) of 618.2 x10_4/ul, a Ret (24 h) of 6.9% and a WBC (24 h) of 99.5 x10_2/uL. It also gave a KIDNEY_L (24 h) of 1 g, a KIDNEY_R (24 h) of 1 g and a KIDNEY_TOTAL (24 h) of 2 g. For the same compound, the LIVER (24 h) was 10.8 g, the A/G (24 h) was 1.1 and the ALP (24 h) was 1625.6 IU/L. The ALT (24 h) was 47.6 IU/L, the AST (24 h) was 73 IU/L and the BUN (24 h) was 17.2 mg/dL. It also gave a CRE (24 h) of 0.2 mg/dL, a Ca (24 h) of 10.6 mg/dL and a Cl (24 h) of 106.8 meq/L. For the same compound, the DBIL (24 h) was 0 mg/dL, the GLC (24 h) was 199 mg/dL and the IP (24 h) was 8.1 mg/dL. For the same compound, the K (24 h) was 4.1 meq/L, the LDH (24 h) was 176.8 IU/L and the Na (24 h) was 142.4 meq/L. It also gave a PL (24 h) of 147.2 mg/dL, an RALB (24 h) of 3 g/dL and a TBIL (24 h) of 0.006 mg/dL. It also gave a TC (24 h) of 73.4 mg/dL, a TG (24 h) of 94.6 mg/dL and a TP (24 h) of 5.7 g/dL. For the same compound, the gamma-GTP (24 h) was 1.8 IU/L.
